# Experimental data published in patent publication US11964979B2, “Camsylate salts of triazolopyrazine derivatives” (ABION Inc., priority 2022, dated 2024).
# “And” between values parts separate entries of the source, which are not always exact repeats. Equal entries are not always repeated. Where two headings read alike, the source gives them in different places.
# Columns and labels:
# [1] = DVS analysis (hygroscopicity); assay type: physicochemical
# Procedure: Differences in hygroscopicity (moisture uptake) of the various forms of a solid material provided a measure of their relative stability at increasing relative humidity. Moisture sorption isotherms of small samples were obtained using a DVS-1 system from Surface Measurement Systems (London, UK); this instrument is suitable for use with as little as a few milligrams of sample, with an accuracy of 0.1 μg. The relative humidity was varied during sorption-desorption-sorption (40-95-0-40% RH) at a constant temperature of 25° C., typically with a hold time of 60 minutes per step (10% relative humidity step). At the end of the DVS experiment the sample was measured by XRPD.
# The hygroscopicity was classified according to the European Pharmacopoeia Hygroscopicity classification.
# [2] = 40° C./75% RH
# Procedure: Subsequently, all the solids were exposed to accelerated aging conditions (AAC) at 40° C./75% RH for 48 hours and re-measured by HT-XRPD to test their physical stability.
# [3] = Physical and chemical stability study up to 2 years (XRPD, TGMS, HPLC)
# [4] = Approximate solubility determination by adding aliquots of solvent; assay type: physicochemical; details: thermodynamic from solid
# Procedure: The approximate solubility was determined by adding small aliquots of solvent (50 μL up to 1 mL, 100 μL above 1 mL) to the solid starting material until complete dissolution was observed or a maximum volume of 4 mL was reached. Afterwards the solvents were evaporated and obtained solids were analyzed by HT-XRPD.
# [5] = Thermal stability study in solution (LCMS); assay type: physicochemical; details: for Area % (LCMS): approx. 0.3 mg/mL
# Procedure: A thermal stability study was performed on ABN-401 to investigate the chemical stability of the starting material in solution when exposed to elevated temperatures. Solutions of ABN-401 were prepared in acetone, 1,2-dimethoxyethane, and acetonitrile with a concentration of approximately 0.3 mg/mL. Solutions were left at RT for 1 hour and successively, two aliquots of each solution were taken and heated at 50° C. and 80° C. for one hour. All these solutions were analyzed by LCMS. Additionally, the samples kept at RT were remeasured by LCMS after 24 hours to check the chemical degradation over time.
# Starting material characterization and purity assessment of the novel crystalline forms of the free base: • Method name: S19061_03.M • Sample: • Concentration: 0.3 mg/ml • Diluent: Acetonitrile
smiles,measurement,setting,value
CC1(C)[C@@H]2CC[C@]1(CS(=O)(=O)O)C(=O)C2.CN1CCN(Cc2ccc(-c3cnc(N4CCO[C@H](Cn5nnc6ncc(-c7cnn(C)c7)nc65)C4)nc3)cc2)CC1 (stereo in doubt) [Camp2],Form identified by HT-XRPD in the solid recovered after DVS,[1],Camp4
same,Change in mass at 80% RH,[1]; 25° C.,1.4%
same,Hygroscopicity (European Pharmacopeia Hygroscopicity classification),[1]; based on change in mass at 80% RH,slightly hygroscopic
same,Water vapor uptake,"[1]; first sorption half-cycle, at 95% RH, 25° C.",15.6%
same,Change in mass,"[1]; first sorption half-cycle, range 40→95% RH, 25° C.",14.1%
same,Change in mass,"[1]; last sorption half-cycle, range 0→40% RH, 25° C.",6.6%
same,Reversibility of water uptake,[1]; sorption-desorption-sorption 40-95-0-40% RH,irreversible
same,Form after AAC,"[2]; Exp. ID GEN17, Ethanol",Camp2
same,Form after AAC,"[2]; Exp. ID SSm60, ACN, API:CI 1:1",Camp2
same,API chemical purity (area %),[3]; 25° C./60% RH for 1 month,99.8%
same,Mass loss attributed to water (TGA/TGMS),[3]; 25° C./60% RH for 1 month,1.6%
same,Solid form by HT-XRPD after exposure,[3]; 25° C./60% RH for 1 month (GEN50),Camp2
same,API chemical purity (area %),[3]; 25° C./60% RH for 3 months,99.7%
same,Mass loss attributed to water (TGA/TGMS),[3]; 25° C./60% RH for 3 months,1.6%
same,Solid form by HT-XRPD after exposure,[3]; 25° C./60% RH for 3 months (GEN51),Camp2
same,API chemical purity (area %),[3]; 25° C./60% RH for 15 months,99.5% and 97.3%
same,Mass loss attributed to water (TGA/TGMS),[3]; 25° C./60% RH for 15 months,1.6%
same,Solid form by HT-XRPD after exposure,[3]; 25° C./60% RH for 15 months (GEN52),Camp2
same,API chemical purity (area %),[3]; 25° C./60% RH for 24 months,100%
same,Mass loss attributed to water (TGA/TGMS),[3]; 25° C./60% RH for 24 months,1.9%
same,Solid form by HT-XRPD after exposure,[3]; 25° C./60% RH for 24 months (GEN53),Camp2
same,Solid form conversion (HT-XRPD),[3]; 25° C./60% RH up to 24 months,no solid form conversion occurred
same,Solid form conversion (HT-XRPD),[3]; 40° C./75% RH,solid form conversions were observed after 3 months
same,API chemical purity (area %),[3]; 40° C./75% RH for 1 month,99.8%
same,Mass loss attributed to water (TGA/TGMS),[3]; 40° C./75% RH for 1 month,1.8%
same,Solid form by HT-XRPD after exposure,[3]; 40° C./75% RH for 1 month (GEN54),Camp2
same,API chemical purity (area %),[3]; 40° C./75% RH for 3 months,99.3%
same,Mass loss attributed to water (TGA/TGMS),[3]; 40° C./75% RH for 3 months,7.1%
same,Solid form by HT-XRPD after exposure,[3]; 40° C./75% RH for 3 months (GEN55),Camp4
same,API chemical purity (area %),[3]; 40° C./75% RH for 15 months,93.7%
same,Mass loss attributed to water (TGA/TGMS),[3]; 40° C./75% RH for 15 months,6.9%
same,Solid form by HT-XRPD after exposure,[3]; 40° C./75% RH for 15 months (GEN56),Camp4
same,API chemical purity (area %),[3]; 40° C./75% RH for 24 months,88.6%
same,Mass loss attributed to water (TGA/TGMS),[3]; 40° C./75% RH for 24 months,6.7%
same,Solid form by HT-XRPD after exposure,"[3]; 40° C./75% RH for 24 months (GEN57), E = Form E of the free base",Camp3+E
CN1CCN(Cc2ccc(-c3cnc(N4CCOC(Cn5nnc6ncc(-c7cnn(C)c7)nc65)C4)nc3)cc2)CC1 (stereo not shown) [ABN-401],Chemical degradation (LCMS),[3]; 24 months at 25° C./60% RH and at 40° C./75% RH,chemical degradation is occurring at both conditions
same,Mass loss attributed to water (TGA/TGMS),[3]; 25° C./60% RH for 1 month,3.7%
same,Mass loss attributed to water (TGA/TGMS),[3]; 25° C./60% RH for 3 months,4.1%
same,Mass loss attributed to water (TGA/TGMS),[3]; 25° C./60% RH for 15 months,3.3%
same,API chemical purity (area %),[3]; 25° C./60% RH for 24 months,87.2%
same,Mass loss attributed to water (TGA/TGMS),[3]; 25° C./60% RH for 24 months,5.3%
same,Mass loss attributed to water (TGA/TGMS),[3]; 40° C./75% RH for 1 month,4.0%
same,Mass loss attributed to water (TGA/TGMS),[3]; 40° C./75% RH for 3 months,4.4%
same,Mass loss attributed to water (TGA/TGMS),[3]; 40° C./75% RH for 15 months,3.7%
same,API chemical purity (area %),[3]; 40° C./75% RH for 24 months,90.7%
same,Mass loss attributed to water (TGA/TGMS),[3]; 40° C./75% RH for 24 months,5.2%
same,solubility,"[4]; organic solvent or mixture, 1,2-Dimethoxyethane (SAS6)",12.7 to 13.8 mg/mL
same,solubility,"[4]; organic solvent or mixture, 1,4-Dioxane (SAS4)",> 199 mg/mL
same,solubility,"[4]; organic solvent or mixture, Acetone (SAS1)",22.1 to 25.6 mg/mL
same,solubility,"[4]; organic solvent or mixture, Chloroform (SAS3)",> 311 mg/mL
same,solubility,"[4]; organic solvent or mixture, Ethyl acetate (SAS5)",4.4 to 4.6 mg/mL
same,solubility,"[4]; organic solvent or mixture, Isopropanol (SAS7)",< 2.7 mg/mL
same,solubility,"[4]; organic solvent or mixture, Methanol (SAS8)",< 2.9 mg/mL
same,solubility,"[4]; organic solvent or mixture, Tetrahydrofuran (SAS9)",> 181 mg/mL
same,solubility,[4]; Water (SAS10),< 3.1 mg/mL
same,Area % (LCMS),"[5]; 1,2-dimethoxyethane solution, 1 h/50° C.",98.6%
same,Area % (LCMS),"[5]; 1,2-dimethoxyethane solution, 1 h/80° C.",97.7%
same,Area % (LCMS),"[5]; 1,2-dimethoxyethane solution, 1 h/RT",99.0%
same,Area % (LCMS),"[5]; 1,2-dimethoxyethane solution, 24 h/RT",98.8%
same,Area % (LCMS),"[5]; ACN solution, 1 h/50° C.",99.0%
same,Area % (LCMS),"[5]; ACN solution, 1 h/80° C.",98.7%
same,Area % (LCMS),"[5]; ACN solution, 1 h/RT",99.0%
same,Area % (LCMS),"[5]; ACN solution, 24 h/RT",98.1%
same,Area % (LCMS),"[5]; Acetone solution, 1 h/50° C.",99.0%
same,Area % (LCMS),"[5]; Acetone solution, 1 h/80° C.",99.0%
same,Area % (LCMS),"[5]; Acetone solution, 1 h/RT",98.8%
same,Area % (LCMS),"[5]; Acetone solution, 24 h/RT",98.5%
same,Chemical degradation in solution,"[5]; samples kept at 50° C. and 80° C. for one hour, acetone, 1,2-dimethoxyethane, acetonitrile",No significant chemical degradation was observed
CC1(C)[C@@H]2CC[C@]1(CS(=O)(=O)O)C(=O)C2.CN1CCN(Cc2ccc(-c3cnc(N4CCO[C@H](Cn5nnc6ncc(-c7cnn(C)c7)nc65)C4)nc3)cc2)CC1 [Camp1],Form after AAC,"[2]; Exp. ID SSm14, Acetone, API:CI 1:1",Camp1
same,Form after AAC,"[2]; Exp. ID SSm37, 1,2-Dimethoxyethane, API:CI 1:1",Camp1
CC1(C)[C@@H]2CC[C@]1(CS(=O)(=O)O)C(=O)C2.CN1CCN(Cc2ccc(-c3cnc(N4CCO[C@H](Cn5nnc6ncc(-c7cnn(C)c7)nc65)C4)nc3)cc2)CC1 [Camp4],Form after AAC,"[2]; Exp. ID GEN16, Chloroform",Camp4
same,Form after AAC,"[2]; Exp. ID GEN19, Heptane",Camp4
same,Form after AAC,"[2]; Exp. ID GEN23, IPA/Water (97/3), lc = low crystalline",lc
same,Form after AAC,"[2]; Exp. ID GEN25, 1,4-Dioxane/Water (96/4)",Camp4
same,Form after AAC,"[2]; Exp. ID GEN26, THF/Water (95/5)",Camp4
CC1(C)[C@@H]2CC[C@]1(CS(=O)(=O)O)C(=O)C2.CN1CCN(Cc2ccc(-c3cnc(N4CCO[C@H](Cn5nnc6ncc(-c7cnn(C)c7)nc65)C4)nc3)cc2)CC1 [Camp5],Form after AAC,"[2]; Exp. ID GEN21, THF",Camp2
